Assay results published in PubChem BioAssay AID248 (DTP/NCI, 2004).
Several values for one entry are separate records, joined by “and”; a condition that tells them apart may be missing. Equal entries are not always repeated. Inconclusive results and toxic doses are left out. Rule as the data show it: active = T/C of 150% or more; inactive = T/C below 125%.

Tested on: L1210 leukemia ip in BDF1 mice, survival T/C
Assay: NCI In Vivo Anticancer Drug Screen. Data for tumor model L1210 Leukemia (intraperitoneal) in B6D2F1 (BDF1) mice
Conditions: higher = longer survival
In short: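 Survival endpoint. Drug-treated group vs vehicle group, expressed as T divided by C. Tumor passaged by transplantation.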

[1] = endpoint: mean survival time, dose: 100.0 mg/kg/injection, schedule: Q04DX003 (ip), vehicle: Klucel (hydroxypropylcellulose) (HPC)
[2] = endpoint: mean survival time, dose: 200.0 mg/kg/injection, schedule: Q04DX003 (ip), vehicle: Klucel (hydroxypropylcellulose) (HPC)
[3] = endpoint: mean survival time, dose: 400.0 mg/kg/injection, schedule: Q04DX003 (ip), vehicle: Klucel (hydroxypropylcellulose) (HPC)
[4] = endpoint: mean survival time, dose: 100.0 mg/kg/injection, schedule: Q01DX001 (ip), vehicle: saline with Tween-80
[5] = endpoint: mean survival time, dose: 200.0 mg/kg/injection, schedule: Q01DX001 (ip), vehicle: saline with Tween-80
[6] = endpoint: mean survival time, dose: 400.0 mg/kg/injection, schedule: Q01DX001 (ip), vehicle: saline with Tween-80
[7] = endpoint: mean survival time, dose: 50.0 mg/kg/injection, schedule: Q01DX009 (ip), vehicle: saline with Tween-80
[8] = endpoint: mean survival time, dose: 100.0 mg/kg/injection, schedule: Q01DX009 (ip), vehicle: saline with Tween-80
[9] = endpoint: mean survival time, dose: 100.0 mg/kg/injection, schedule: Q01DX001 (ip), vehicle: carboxymethylcellulose (CMC)
[10] = endpoint: mean survival time, dose: 200.0 mg/kg/injection, schedule: Q01DX001 (ip), vehicle: carboxymethylcellulose (CMC)
[11] = endpoint: mean survival time, dose: 400.0 mg/kg/injection, schedule: Q01DX001 (ip), vehicle: carboxymethylcellulose (CMC)
[12] = endpoint: mean survival time, dose: 100.0 mg/kg/injection, schedule: Q01DX009 (ip), vehicle: saline
[13] = endpoint: mean survival time, dose: 200.0 mg/kg/injection, schedule: Q01DX009 (ip), vehicle: saline with Tween-80
[14] = endpoint: mean survival time, dose: 100.0 mg/kg/injection, schedule: Q04DX003 (ip), vehicle: saline with Tween-80
[15] = endpoint: mean survival time, dose: 200.0 mg/kg/injection, schedule: Q04DX003 (ip), vehicle: saline with Tween-80
[16] = endpoint: mean survival time, dose: 400.0 mg/kg/injection, schedule: Q04DX003 (ip), vehicle: saline with Tween-80

Measured: T/C

Nc1ccn(C2CC(O)C(CO)O2)c(=O)n1 (stereo not drawn)
inactive: endpoint: median survival time, dose: 75.0 mg/kg/injection, schedule: Q01DX001 (ip), vehicle: other 100 % of control and 101 % of control | endpoint: median survival time, dose: 150.0 mg/kg/injection, schedule: Q01DX001 (ip), vehicle: other 99 % of control and 100 % of control

CCCCCCCCCCCCCCN(C)C
inactive: endpoint: mean survival time, dose: 25.0 mg/kg/injection, schedule: Q04DX003 (ip), vehicle: Klucel (hydroxypropylcellulose) (HPC) 107 % of control | endpoint: mean survival time, dose: 50.0 mg/kg/injection, schedule: Q04DX003 (ip), vehicle: Klucel (hydroxypropylcellulose) (HPC) 108 % of control | [1] 94 % of control and 96 % of control

COCC1C2CC(=O)OC2C(I)C1OC(=O)c1ccc(-c2ccccc2)cc1 (stereo not drawn)
inactive: [1] 100 % of control | [2] 104 % of control | [3] 91 % of control

O=C(N/N=C/c1[nH]c(=S)[nH]c(=O)c1Cc1ccc(Cl)cc1)c1ccccc1
inactive: [4] 96 % of control | [5] 92 % of control | [6] 123 % of control

Cc1ccc2nc3c(cc(F)c4ccccc43)c(C)c2c1
inactive: [7] 105 % of control | [8] 87 % of control

C=C1C(=O)OC2C1CCC(C)C1(O)C=CC(=O)C21C (stereo not drawn)
inactive: endpoint: mean survival time, dose: 6.25 mg/kg/injection, schedule: Q01DX009 (ip), vehicle: saline 98 % of control | endpoint: mean survival time, dose: 12.5 mg/kg/injection, schedule: Q01DX009 (ip), vehicle: saline 98 % of control | endpoint: mean survival time, dose: 25.0 mg/kg/injection, schedule: Q01DX009 (ip), vehicle: saline 101 % of control | endpoint: mean survival time, dose: 50.0 mg/kg/injection, schedule: Q01DX009 (ip), vehicle: saline 103 % of control

C=C1CC23CC[C@H]4[C@@](C)(CCC[C@@]4(C)C(=O)OC4OC(CO)C(O)C(O)C4O)[C@@H]2CC[C@@]1(OC1OC(CO)C(O)C(O)C1OC1OC(CO)C(O)C(O)C1O)C3 (stereo partly drawn)
inactive: [4] 101 % of control | [5] 93 % of control | [6] 96 % of control

COc1ccccc1CN1CCCN(Cc2ccccc2OC)C1c1cc(OC)c(O)c(OC)c1
inactive: [9] 98 % of control | [10] 91 % of control | [11] 96 % of control

CN(C)c1ccc(N=Nc2cccc([N+](=O)[O-])c2)cc1
inactive: endpoint: mean survival time, dose: 100.0 mg/kg/injection, schedule: Q01DX009 (ip), vehicle: Klucel (hydroxypropylcellulose) (HPC) 105 % of control | endpoint: mean survival time, dose: 200.0 mg/kg/injection, schedule: Q01DX009 (ip), vehicle: Klucel (hydroxypropylcellulose) (HPC) 97 % of control | endpoint: mean survival time, dose: 400.0 mg/kg/injection, schedule: Q01DX009 (ip), vehicle: Klucel (hydroxypropylcellulose) (HPC) 100 % of control

Nc1ccc(P(=O)(O)O)cc1
inactive: endpoint: mean survival time, dose: 50.0 mg/kg/injection, schedule: Q01DX001 (ip), vehicle: carboxymethylcellulose (CMC) 101 % of control | [9] 97 % of control | [10] 91 % of control | [11] 91 % of control

CC(C)(C)NC[Si](C)(C)C
inactive: [12] 92 % of control

COc1ccc(/C=N/NC(=O)c2ccc(Cl)cc2Cl)cc1OC
inactive: [7] 103 % of control | [8] 88 % of control | [13] 92 % of control

N#CCC(=O)[O][Sn]([c]1ccccc1)([c]1ccccc1)[c]1ccccc1
inactive: endpoint: mean survival time, dose: 1.56 mg/kg/injection, schedule: Q01DX009 (ip), vehicle: saline with Tween-80 99 % of control | endpoint: mean survival time, dose: 3.12 mg/kg/injection, schedule: Q01DX009 (ip), vehicle: saline with Tween-80 92 % of control | endpoint: mean survival time, dose: 6.25 mg/kg/injection, schedule: Q01DX009 (ip), vehicle: saline with Tween-80 89 % of control

CCCCCCCCCCCCCCCCCCSCCO
inactive: [1] 100 % of control and 90 % of control | [2] 102 % of control | [3] 92 % of control and 100 % of control

Cc1nc2nc[nH]c(=O)c2nc1C
inactive: endpoint: mean survival time, dose: 16.0 mg/kg/injection, schedule: Q01DX Z (ip), vehicle: methylcellulose (MC) 92 % of control | endpoint: mean survival time, dose: 31.0 mg/kg/injection, schedule: Q01DX Z (ip), vehicle: methylcellulose (MC) 89 % of control | endpoint: mean survival time, dose: 62.0 mg/kg/injection, schedule: Q01DX Z (ip), vehicle: methylcellulose (MC) 103 % of control | endpoint: mean survival time, dose: 125.0 mg/kg/injection, schedule: Q01DX Z (ip), vehicle: methylcellulose (MC) 93 % of control and 97 % of control | endpoint: mean survival time, dose: 250.0 mg/kg/injection, schedule: Q01DX Z (ip), vehicle: methylcellulose (MC) 107 % of control

NC(N)=NCCCCNCCCN=C(N)N
inactive: endpoint: mean survival time, dose: 75.0 mg/kg/injection, schedule: Q01DX001 (ip), vehicle: saline 98 % of control | endpoint: mean survival time, dose: 150.0 mg/kg/injection, schedule: Q01DX001 (ip), vehicle: saline 107 % of control

O=C1N(c2ccccc2)C(c2ccncc2)C1(c1ccccc1)c1ccccc1 (stereo not drawn)
inactive: endpoint: mean survival time, dose: 87.5 mg/kg/injection, schedule: Q04DX003 (ip), vehicle: gum acacia 91 % of control | endpoint: mean survival time, dose: 175.0 mg/kg/injection, schedule: Q04DX003 (ip), vehicle: gum acacia 91 % of control | endpoint: mean survival time, dose: 350.0 mg/kg/injection, schedule: Q04DX003 (ip), vehicle: gum acacia 91 % of control

CCCCCCCCCCCCCCOc1ccc(Cc2ccccc2)cc1
inactive: [1] 91 % of control | [2] 90 % of control | [3] 88 % of control

CC1CCCC(CN=Cc2cc([N+](=O)[O-])ccc2O)[N-]1.CC1CCCC(CN=Cc2cc([N+](=O)[O-])ccc2O)[N-]1.[Ni+2] (stereo not drawn)
inactive: [8] 86 % of control | [14] 95 % of control | [13] 86 % of control | [15] 95 % of control | [16] 86 % of control

CNc1cc(Cl)c(C#N)c(Cl)c1
inactive: endpoint: mean survival time, dose: 100.0 mg/kg/injection, schedule: Q01DX001 (ip), vehicle: Klucel (hydroxypropylcellulose) (HPC) 105 % of control | [1] 94 % of control | endpoint: mean survival time, dose: 200.0 mg/kg/injection, schedule: Q01DX001 (ip), vehicle: Klucel (hydroxypropylcellulose) (HPC) 105 % of control | [2] 100 % of control | endpoint: mean survival time, dose: 400.0 mg/kg/injection, schedule: Q01DX001 (ip), vehicle: Klucel (hydroxypropylcellulose) (HPC) 103 % of control | [3] 99 % of control

O=C(NN=C1CCCC1)c1ccccc1O
inactive: [12] 102 % of control | endpoint: mean survival time, dose: 200.0 mg/kg/injection, schedule: Q01DX009 (ip), vehicle: saline 102 % of control | endpoint: mean survival time, dose: 400.0 mg/kg/injection, schedule: Q01DX009 (ip), vehicle: saline 120 % of control

CC(=O)O/N=C(/C)c1ccccc1
inactive: endpoint: mean survival time, dose: 75.0 mg/kg/injection, schedule: Q01DX009 (ip), vehicle: saline sonified 102 % of control | endpoint: mean survival time, dose: 100.0 mg/kg/injection, schedule: Q04DX003 (ip), vehicle: saline sonified 100 % of control | endpoint: mean survival time, dose: 150.0 mg/kg/injection, schedule: Q01DX009 (ip), vehicle: saline sonified 100 % of control | endpoint: mean survival time, dose: 200.0 mg/kg/injection, schedule: Q04DX003 (ip), vehicle: saline sonified 97 % of control | endpoint: mean survival time, dose: 400.0 mg/kg/injection, schedule: Q04DX003 (ip), vehicle: saline sonified 100 % of control

Cc1[nH]c(=O)[nH]c(=O)c1CN1CCCCC1
inactive: [14] 100 % of control | [15] 106 % of control | [16] 93 % of control

CC(C)N(C(=O)Nc1cccc(OC(=O)N(C)C)c1)C(C)C
inactive: [14] 94 % of control | [15] 88 % of control | [16] 96 % of control
